Literature values as cited in US12678446B2 (PFIZER INC., priority 2020, dated 2026).

Test system: RSV
Conditions: Antimicrobial Agents and Chemotherapy, September 2007, 3346-3353; cited from earlier work

O=C(Nc1ccccc1F)N[C@H]1N=C(c2ccccc2)c2ccccc2NC1=O [RSV604]
anti-RSV activity: sub-micromolar anti-RSV activity
